This assay addresses Aurora B/INCENP (Homo sapiens, UniProt Q96GD4). Description: Determination of inhibition of AIK: Aurora B/INCENP direct fluorescence polarization (IMAP) assay. The class given is biochemical. To be noted: 10 uM ATP, 0.8 nM Aurora B/INCENP; values given as bins; read-out: IC50 of Exemplified Compounds Against AIK B. Here is the method: Detection of the reaction product is performed by addition of Progressive IMAP binding reagent (Molecular Devices). Reaction product may be determined quantitatively by FP using an Analyst HT plate reader (Molecular Devices) with an excitation wavelength at 485 nm and emission at 530 nm and using a Fluorescein 505 dichroic mirror.
The assay reaction may be initiated as follows: 2 ul of (3×) 300 nM Fl-Peptide/30 uM ATP was added to each well of the plate, followed by the addition of 2 ul of (3×) inhibitor (2 fold serial dilutions for 11 data points for each inhibitor) containing 15% DMSO. Two microliters of (3×) 2.4 nM AuroraB/INCENP solution may be added to initiate the reaction (final enzyme concentration was 0.8 nM for Aurora B/INCENP). The reaction mixture may then be incubated at room temperature for 45 min, and quenched and developed by addition of 20 ul of 1 to 400 diluted Progressive IMAP binding reagent in 1× proprietary Progressive IMAP binding buffer A. Fluorescence polarization readings of the resulting reaction mixtures may be measured after a 60-minute incubation at room temperature.
IC50 values may be calculated by non-linear curve fitting of the compound concentrations and fluorescent polarization values to the standard IC50 equation.
Sequence of Aurora B/INCENP (Q96GD4 whole entry): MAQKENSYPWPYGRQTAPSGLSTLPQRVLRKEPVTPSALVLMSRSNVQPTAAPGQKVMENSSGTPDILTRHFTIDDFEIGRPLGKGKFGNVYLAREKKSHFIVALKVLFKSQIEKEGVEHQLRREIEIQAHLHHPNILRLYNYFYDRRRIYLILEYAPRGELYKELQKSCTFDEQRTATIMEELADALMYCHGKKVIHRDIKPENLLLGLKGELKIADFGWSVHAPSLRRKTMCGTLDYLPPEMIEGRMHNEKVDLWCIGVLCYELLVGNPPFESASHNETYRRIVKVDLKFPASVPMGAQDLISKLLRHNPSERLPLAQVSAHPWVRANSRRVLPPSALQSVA
Sequence of Aurora B/INCENP (Q9NQS7 whole entry partner): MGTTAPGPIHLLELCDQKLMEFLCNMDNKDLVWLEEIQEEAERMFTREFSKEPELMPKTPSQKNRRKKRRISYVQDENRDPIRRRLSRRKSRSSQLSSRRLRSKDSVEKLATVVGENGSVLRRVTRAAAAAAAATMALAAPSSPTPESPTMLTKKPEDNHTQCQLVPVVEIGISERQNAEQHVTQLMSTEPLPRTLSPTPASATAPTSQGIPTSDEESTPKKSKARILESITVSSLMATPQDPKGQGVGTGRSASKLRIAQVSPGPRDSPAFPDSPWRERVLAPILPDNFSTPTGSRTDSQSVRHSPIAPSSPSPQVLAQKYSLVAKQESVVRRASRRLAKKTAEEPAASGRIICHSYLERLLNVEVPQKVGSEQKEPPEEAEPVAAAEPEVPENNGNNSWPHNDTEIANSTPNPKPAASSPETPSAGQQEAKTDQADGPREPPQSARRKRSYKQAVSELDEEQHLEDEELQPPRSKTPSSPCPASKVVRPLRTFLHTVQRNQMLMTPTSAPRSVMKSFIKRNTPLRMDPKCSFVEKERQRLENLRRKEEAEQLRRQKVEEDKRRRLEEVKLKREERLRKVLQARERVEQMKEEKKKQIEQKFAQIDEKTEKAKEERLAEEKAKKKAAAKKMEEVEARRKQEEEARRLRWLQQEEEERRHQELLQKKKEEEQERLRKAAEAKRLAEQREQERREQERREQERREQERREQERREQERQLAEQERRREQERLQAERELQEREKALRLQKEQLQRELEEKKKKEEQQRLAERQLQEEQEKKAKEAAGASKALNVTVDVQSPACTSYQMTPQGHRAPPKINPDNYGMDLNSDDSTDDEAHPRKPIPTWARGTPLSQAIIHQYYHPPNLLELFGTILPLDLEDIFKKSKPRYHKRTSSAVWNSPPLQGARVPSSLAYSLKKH
As for `CCS(=O)(=O)c1cccc(-c2cnc(OCC(C)(C)O)c3[nH]c4ncc(C)cc4c23)c1` [Compound 58, 1-[5-(3-Ethanesulfonyl-phenyl)-3-methyl-9H-dipyrido[2,3-b;4′,3′-d]pyrrol-8-yloxy]-2-methyl-propan-2-ol], the IC50 lay in the range of 8.6 to 13 nM.
In the case of `CCS(=O)(=O)c1cccc(-c2cnc(Oc3ccccc3)c3[nH]c4ncc(C)cc4c23)c1` [Compound 59, 5-(3-Ethanesulfonyl-phenyl)-3-methyl-8-phenoxy-9H-dipyrido[2,3-b;4′,3′-d]pyrrole] it was 5.6 to 8.5 nM.
For the molecule `CCS(=O)(=O)c1cccc(-c2cnc(OCc3cncs3)c3[nH]c4ncc(C)cc4c23)c1` [Compound 60, 5-(3-Ethanesulfonyl-phenyl)-3-methyl-8-(thiazol-5-ylmethoxy)-9H-dipyrido[2,3-b;4′,3′-d]pyrrole], the IC50 was 4 to 5.5 nM.
With `CCN1CCC(COc2ncc(-c3cccc(S(=O)(=O)CC)c3)c3c2[nH]c2ncc(C)cc23)CC1` [Compound 61, 5-(3-Ethanesulfonyl-phenyl)-8-(1-ethyl-piperidin-4-ylmethoxy)-3-methyl-9H-dipyrido[2,3-b;4′,3′-d]pyrrole], the half-maximal inhibitory concentration (IC50) fell in the range of 5.6 to 8.5 nM.
`CCS(=O)(=O)c1cccc(-c2cnc(OC[C@H](C)O)c3[nH]c4ncc(C)cc4c23)c1` [Compound 62, (S)-1-[5-(3-Ethanesulfonyl-phenyl)-3-methyl-9H-dipyrido[2,3-b;4′,3′-d]pyrrol-8-yloxy]-propan-2-ol]: the IC50 is 4 to 5.5 nM.
In the case of `CCS(=O)(=O)c1cccc(-c2cnc(OC[C@@H](C)O)c3[nH]c4ncc(C)cc4c23)c1` [Compound 63, (R)-1-[5-(3-Ethanesulfonyl-phenyl)-3-methyl-9H-dipyrido[2,3-b;4′,3′-d]pyrrol-8-yloxy]-propan-2-ol] it was 4 to 5.5 nM.
With `CCS(=O)(=O)c1cccc(-c2cnc(OCCOC(=O)[C@@H](N)C(C)C)c3[nH]c4ncc(C)cc4c23)c1` [Compound 64, L-Valine-2-[5-(3-ethanesulfonyl-phenyl)-3-methyl-9H-dipyrido[2,3-b;4′,3′-d]pyrrol-8-yloxy]-ethyl ester] the figure was 5.6 to 8.5 nM; with `CCS(=O)(=O)c1cccc(-c2cnc(OC[C@@H](C)OC(=O)[C@H](C)N)c3[nH]c4ncc(C)cc4c23)c1` [Compound 65, L-Alanine-(R)-2-[5-(3-ethanesulfonyl-phenyl)-3-methyl-9H-dipyrido[2,3-b;4′,3′-d]pyrrol-8-yloxy]-1-methyl-ethyl ester], 8.6 to 13 nM; with `CCS(=O)(=O)c1cccc(-c2cnc(OCC3CCN(C)CC3)c3[nH]c4ncc(Cl)cc4c23)c1` [Compound 72, 3-Chloro-5-(3-ethanesulfonyl-phenyl)-8-(1-methyl-piperidin-4-ylmethoxy)-9H-dipyrido[2,3-b;4′,3′-d]pyrrole], less than 4 nM.
In the case of `CCS(=O)(=O)c1cccc(-c2cnc(OC[C@@H](C)O)c3[nH]c4ncc(Cl)cc4c23)c1` [Compound 73, (R)-1-[3-Chloro-5-(3-ethanesulfonyl-phenyl)-9H-dipyrido[2,3-b;4′,3′-d]pyrrol-8-yloxy]-propan-2-ol], the IC50 was less than 4 nM.
For `CCS(=O)(=O)c1cccc(-c2cnc(NC)c3[nH]c4ncc(C)cc4c23)c1` [Compound 74, 2-[5-(3-Ethanesulfonyl-phenyl)-3-methyl-9H-dipyrido[2,3-b;4′,3′-d]pyrrol-8-yl]methyl amine], the IC50 is less than 4 nM.
Take `CCS(=O)(=O)c1cccc(-c2cnc(SC)c3[nH]c4ncc(C)cc4c23)c1` [Compound 75]: the IC50 is less than 4 nM.
With `CCSc1ncc(-c2cccc(S(=O)(=O)CC)c2)c2c1[nH]c1ncc(C)cc12` [Compound 76] the figure was 5.6 to 8.5 nM; with `CCSc1ncc(-c2cccc(NC(=O)C3CC3)c2)c2c1[nH]c1ncc(C)cc12` [Compound 79], greater than 13 nM; with `CCS(=O)(=O)c1cccc(-c2cc(C(=O)NC3CCN(C)CC3)c(C)c3[nH]c4ncc(C)cc4c23)c1` [Compound 88, 5-(3-(ethylsulfonyl)phenyl)-3,8-dimethyl-N-(1-methylpiperidin-4-yl)-9H-pyrido[2,3-b]indole-7-carboxamide], 8.6 to 13 nM.
In the case of `CCS(=O)(=O)c1cccc(-c2cc(C(=O)NCCNC)c(C)c3[nH]c4ncc(C)cc4c23)c1` [Compound 89, N-(2-(methylamino)ethyl)-5-(3-(ethylsulfonyl)phenyl)-3,8-dimethyl-9H-pyrido[2,3-b]indole-7-carboxamide] it was 8.6 to 13 nM.
With `CCS(=O)(=O)c1cccc(-c2cc(C(=O)NCCOC)c(C)c3[nH]c4ncc(C)cc4c23)c1` [Compound 90, N-(2-(methoxy)ethyl)-5-(3-(ethylsulfonyl)phenyl)-3,8-dimethyl-9H-pyrido[2,3-b]indole-7-carboxamide] the figure was 5.6 to 8.5 nM; with `CCS(=O)(=O)c1cccc(-c2cc(C(=O)N(C)CCN(C)C)c(C)c3[nH]c4ncc(C)cc4c23)c1` [Compound 91, N-(2-(dimethylamino)ethyl)-N-methyl-5-(3-(ethylsulfonyl)phenyl)-3,8-dimethyl-9H-pyrido[2,3-b]indole-7-carboxamide], greater than 13 nM.
Regarding `CCS(=O)(=O)c1cccc(-c2cc(C(=O)N(C)C)c(C)c3[nH]c4ncc(C)cc4c23)c1` [Compound 92, N,N-dimethyl-5-(3-(ethylsulfonyl)phenyl)-3,8-dimethyl-9H-pyrido[2,3-b]indole-7-methylcarboxamide], the IC50 was 5.6 to 8.5 nM.
With `CCS(=O)(=O)c1cccc(-c2cc(C(=O)N3CCN(C)CC3)c(C)c3[nH]c4ncc(C)cc4c23)c1` [Compound 93] the figure was greater than 13 nM.
In the case of `CCS(=O)(=O)c1cccc(-c2cc(C(=O)NCCN3CCNCC3)c(C)c3[nH]c4ncc(C)cc4c23)c1` [Compound 94] it was greater than 13 nM; in that of `CCS(=O)(=O)c1cccc(-c2cc(C(=O)NCCCN3CCN(C)CC3)c(C)c3[nH]c4ncc(C)cc4c23)c1` [Compound 95, 5-(3-(ethylsulfonyl)phenyl)-3,8-dimethyl-N-(3-(4-methylpiperazin-1-yl)propyl)-9H-pyrido[2,3-b]indole-7-carboxamide], greater than 13 nM; in that of `CCS(=O)(=O)c1cccc(-c2cc(C(=O)N3CCOCC3)c(C)c3[nH]c4ncc(C)cc4c23)c1` [Compound 96], 8.6 to 13 nM.
For `CCS(=O)(=O)c1cccc(-c2cc(C(=O)N3CCC3)c(C)c3[nH]c4ncc(C)cc4c23)c1` [Compound 97, azetidin-1-yl(5-(3-(ethylsulfonyl)phenyl)-3,8-dimethyl-9H-pyrido[2,3-b]indol-7-yl)methanone], the IC50 is greater than 13 nM.
For the molecule `CCS(=O)(=O)c1cccc(-c2cc(C(=O)N3CCSC3)c(C)c3[nH]c4ncc(C)cc4c23)c1` [Compound 98, (5-(3-(ethylsulfonyl)phenyl)-3,8-dimethyl-9H-pyrido[2,3-b]indol-7-yl)(thaiazolidin-3-yl)methanone], the IC50 was 5.6 to 8.5 nM.
In the case of `CCS(=O)(=O)c1cccc(-c2cc(C(=O)NC[C@@H](C)O)c(C)c3[nH]c4ncc(C)cc4c23)c1` [Compound 99, (R)-5-(3-(ethylsulfonyl)phenyl)-N-(2-hydroxypropyl)-3,8-dimethyl-9H-pyrido[2,3-b]indole-7-carboxamide], the IC50 lay in the range of 8.6 to 13 nM.
Consider `CCS(=O)(=O)c1cccc(-c2cc(C(=O)NC[C@H](C)O)c(C)c3[nH]c4ncc(C)cc4c23)c1` [Compound 100, (S)-5-(3-(ethylsulfonyl)phenyl)-N-(2-hydroxypropyl)-3,8-dimethyl-9H-pyrido[2,3-b]indole-7-carboxamide], for which the IC50 was in the range of 4 to 5.5 nM.
In the case of `CCS(=O)(=O)c1cccc(-c2cc(C(=O)NCCO)c(C)c3[nH]c4ncc(C)cc4c23)c1` [Compound 101, 5-(3-(ethylsulfonyl)phenyl)-N-(2-hydroxyethyl)-3,8-dimethyl-9H-pyrido[2,3-b]indole-7-carboxamide] it was 4 to 5.5 nM.
With `CCS(=O)(=O)c1cccc(-c2cc(C(=O)NCC(O)CO)c(C)c3[nH]c4ncc(C)cc4c23)c1` (stereo not shown) [Compound 102, N-(2,3-dihydroxypropyl)-5-(3-(ethylsulfonyl)phenyl)-3,8-dimethyl-9H-pyrido[2,3-b]indole-7-carboxamide] the figure was 4 to 5.5 nM; with `CCS(=O)(=O)c1cccc(-c2cc(C(=O)NCC(C)(C)O)c(C)c3[nH]c4ncc(C)cc4c23)c1` [Compound 103, 5-(3-(ethylsulfonyl)phenyl)-N-(2-hydroxy-2-methylpropyl)-3,8-dimethyl-9H-pyrido[2,3-b]indole-7-carboxamide], 8.6 to 13 nM.
In the case of `CCS(=O)(=O)c1cccc(-c2cc(C(=O)NC3CCN(C(C)C)CC3)c(C)c3[nH]c4ncc(C)cc4c23)c1` [Compound 104, 5-(3-(ethylsulfonyl)phenyl)-N-(1-isopropylpiperidin-4-yl)-3,8-dimethyl-9H-pyrido[2,3-b]indole-7-carboxamide] it was 8.6 to 13 nM; in that of `CCN1CCC(NC(=O)c2cc(-c3cccc(S(=O)(=O)CC)c3)c3c([nH]c4ncc(C)cc43)c2C)CC1` [Compound 105, N-(1-ethylpiperidin-4-yl)-5-(3-(ethylsulfonyl)phenyl)-3,8-dimethyl-9H-pyrido[2,3-b]indole-7-carboxamide], greater than 13 nM; in that of `CCS(=O)(=O)c1cccc(-c2cc(C(=O)Nc3nccs3)c(C)c3[nH]c4ncc(C)cc4c23)c1` [Compound 106], 5.6 to 8.5 nM.
With `CCS(=O)(=O)c1cccc(-c2cc(C(=O)NCCOCC(F)(F)F)c(C)c3[nH]c4ncc(C)cc4c23)c1` [Compound 107], the IC50 was 8.6 to 13 nM.

Values taken from patent US20090312288A1 (TAKEDA PHARMACEUTICAL COMPANY LIMITED, priority 2008, published 2009).
